Results as given in PubChem BioAssay AID1919017 (Molecular Pharmacology Branch, DTP, NCI, 2023).
pIC50: −log10 of the molar value.

Test system: SW1271 complex spheroids with HUVEC/MSC, growth, % test/control
Experiment: Anticancer human tumor SW1271 cell line growth inhibition [AhR];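 also: spheroids exposed to agents for 7 days before readout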
Settings: for pIC50: curve of first compound; for viability, T/C: stronger effect = lower value
Procedure, shortened: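 Spheroids combined tumor cells with HUVEC endothelial cells and human MSCs as stroma. AhR antagonists were paired with standard or investigational drugs, each dosed in half-log steps down from near clinical Cmax, or from 10 microM where Cmax was unknown.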

[1] = second compound 0.1 µM, first compound 0.0316 µM
[2] = second compound 0.1 µM, first compound 0.1 µM
[3] = second compound 0.1 µM, first compound 0.316 µM
[4] = second compound 0.1 µM, first compound 1 µM
[5] = second compound 0.1 µM, first compound 3.16 µM
[6] = second compound 0.1 µM, first compound 10 µM
[7] = second compound 0.316 µM, first compound 0.0316 µM
[8] = second compound 0.316 µM, first compound 0.1 µM
[9] = second compound 0.316 µM, first compound 0.316 µM
[10] = second compound 0.316 µM, first compound 1 µM
[11] = second compound 0.316 µM, first compound 3.16 µM
[12] = second compound 0.316 µM, first compound 10 µM
[13] = second compound 1 µM, first compound 0.0316 µM
[14] = second compound 1 µM, first compound 0.1 µM
[15] = second compound 1 µM, first compound 0.316 µM
[16] = second compound 1 µM, first compound 1 µM
[17] = second compound 1 µM, first compound 3.16 µM
[18] = second compound 1 µM, first compound 10 µM
[19] = second compound 3.16 µM, first compound 0.0316 µM
[20] = second compound 3.16 µM, first compound 0.1 µM
[21] = second compound 3.16 µM, first compound 0.316 µM
[22] = second compound 3.16 µM, first compound 1 µM
[23] = second compound 3.16 µM, first compound 3.16 µM
[24] = second compound 3.16 µM, first compound 10 µM
[25] = second compound 10 µM, first compound 0.0316 µM
[26] = second compound 10 µM, first compound 0.1 µM
[27] = second compound 10 µM, first compound 0.316 µM
[28] = second compound 10 µM, first compound 1 µM
[29] = second compound 10 µM, first compound 3.16 µM
[30] = second compound 10 µM, first compound 10 µM

Compound: COc1cc(Nc2ncc3c(n2)-c2ccc(Cl)cc2C(c2c(F)cccc2OC)=NC3)ccc1C(=O)O + Cc1ccccc1N=Nc1ccc(NC(=O)c2ccnn2C)c(C)c1
- pIC50 (second compound 0.1 µM): < 5.00
- pIC50 (second compound 0.316 µM): < 5.00
- pIC50 (second compound 1 µM): 5.06
- pIC50 (second compound 3.16 µM): < 5.00
- pIC50 (second compound 10 µM): < 5.00
- viability, T/C [1]: 73.8%
- viability, T/C [2]: 65.6%
- viability, T/C [3]: 77.2%
- viability, T/C [4]: 52.5%
- viability, T/C [5]: 61%
- viability, T/C [6]: 50.9%
- viability, T/C [7]: 72.5%
- viability, T/C [8]: 67.1%
- viability, T/C [9]: 79.2%
- viability, T/C [10]: 65.9%
- viability, T/C [11]: 62.7%
- viability, T/C [12]: 53.2%
- viability, T/C [13]: 81.8%
- viability, T/C [14]: 81%
- viability, T/C [15]: 74.4%
- viability, T/C [16]: 72%
- viability, T/C [17]: 85.5%
- viability, T/C [18]: 46.4%
- viability, T/C [19]: 87.3%
- viability, T/C [20]: 72.5%
- viability, T/C [21]: 66%
- viability, T/C [22]: 57.9%
- viability, T/C [23]: 68.9%
- viability, T/C [24]: 60.2%
- viability, T/C [25]: 65.3%
- viability, T/C [26]: 94.1%
- viability, T/C [27]: 65.7%
- viability, T/C [28]: 60.5%
- viability, T/C [29]: 75.8%
- viability, T/C [30]: 53.8%

Compound: Cn1ncnc1C1c2n[nH]c(=O)c3cc(F)cc(c23)NC1c1ccc(F)cc1 (stereo not given) + Cc1ccccc1N=Nc1ccc(NC(=O)c2ccnn2C)c(C)c1
- pIC50 (second compound 0.1 µM): < 7.00
- pIC50 (second compound 0.316 µM): < 7.00
- pIC50 (second compound 1 µM): < 7.00
- pIC50 (second compound 3.16 µM): < 7.00
- pIC50 (second compound 10 µM): < 7.00
- viability, T/C (second compound 0.1 µM, first compound 0.000316 µM): 118%
- viability, T/C (second compound 0.1 µM, first compound 0.001 µM): 120%
- viability, T/C (second compound 0.1 µM, first compound 0.00316 µM): 133%
- viability, T/C (second compound 0.1 µM, first compound 0.01 µM): 109%
- viability, T/C [1]: 117%
- viability, T/C [2]: 116%
- viability, T/C (second compound 0.316 µM, first compound 0.000316 µM): 124%
- viability, T/C (second compound 0.316 µM, first compound 0.001 µM): 127%
- viability, T/C (second compound 0.316 µM, first compound 0.00316 µM): 109%
- viability, T/C (second compound 0.316 µM, first compound 0.01 µM): 118%
- viability, T/C [7]: 121%
- viability, T/C [8]: 108%
- viability, T/C (second compound 1 µM, first compound 0.000316 µM): 105%
- viability, T/C (second compound 1 µM, first compound 0.001 µM): 93.8%
- viability, T/C (second compound 1 µM, first compound 0.00316 µM): 117%
- viability, T/C (second compound 1 µM, first compound 0.01 µM): 117%
- viability, T/C [13]: 99.3%
- viability, T/C [14]: 114%
- viability, T/C (second compound 3.16 µM, first compound 0.000316 µM): 96.1%
- viability, T/C (second compound 3.16 µM, first compound 0.001 µM): 127%
- viability, T/C (second compound 3.16 µM, first compound 0.00316 µM): 124%
- viability, T/C (second compound 3.16 µM, first compound 0.01 µM): 122%
- viability, T/C [19]: 97.5%
- viability, T/C [20]: 131%
- viability, T/C (second compound 10 µM, first compound 0.000316 µM): 118%
- viability, T/C (second compound 10 µM, first compound 0.001 µM): 124%
- viability, T/C (second compound 10 µM, first compound 0.00316 µM): 110%
- viability, T/C (second compound 10 µM, first compound 0.01 µM): 94.5%
- viability, T/C [25]: 90.5%
- viability, T/C [26]: 82.9%

Compound: NS(=O)(=O)OCC1CC(n2ccc3c(NC4CCc5ccccc54)ncnc32)CC1O (stereo not given) + Cc1ccccc1N=Nc1ccc(NC(=O)c2ccnn2C)c(C)c1
- pIC50 (second compound 0.1 µM): < 5.00
- pIC50 (second compound 0.316 µM): < 5.00
- pIC50 (second compound 1 µM): < 5.00
- pIC50 (second compound 3.16 µM): < 5.00
- pIC50 (second compound 10 µM): < 5.00
- viability, T/C [1]: 129%
- viability, T/C [2]: 161%
- viability, T/C [3]: 118%
- viability, T/C [4]: 101%
- viability, T/C [5]: 91.2%
- viability, T/C [6]: 82.5%
- viability, T/C [7]: 135%
- viability, T/C [8]: 165%
- viability, T/C [9]: 112%
- viability, T/C [10]: 95.9%
- viability, T/C [11]: 103%
- viability, T/C [12]: 86.3%
- viability, T/C [13]: 157%
- viability, T/C [14]: 132%
- viability, T/C [15]: 151%
- viability, T/C [16]: 88.2%
- viability, T/C [17]: 80.1%
- viability, T/C [18]: 78.5%
- viability, T/C [19]: 157%
- viability, T/C [20]: 206%
- viability, T/C [21]: 111%
- viability, T/C [22]: 89.7%
- viability, T/C [23]: 89.1%
- viability, T/C [24]: 83.2%
- viability, T/C [25]: 128%
- viability, T/C [26]: 132%
- viability, T/C [27]: 123%
- viability, T/C [28]: 94%
- viability, T/C [29]: 77.4%
- viability, T/C [30]: 84.9%

Compound: O=C(C=Cc1cccc(S(=O)(=O)Nc2ccccc2)c1)NO + Cc1ccccc1N=Nc1ccc(NC(=O)c2ccnn2C)c(C)c1
- pIC50 (second compound 0.1 µM): 6.03
- pIC50 (second compound 0.316 µM): 5.84
- pIC50 (second compound 1 µM): 6.12
- pIC50 (second compound 3.16 µM): 5.81
- pIC50 (second compound 10 µM): 5.73
- viability, T/C [1]: 86%
- viability, T/C [2]: 87.1%
- viability, T/C [3]: 61.9%
- viability, T/C [4]: 54.3%
- viability, T/C [5]: 26.5%
- viability, T/C [6]: 17.8%
- viability, T/C [7]: 84.3%
- viability, T/C [8]: 91%
- viability, T/C [9]: 64.6%
- viability, T/C [10]: 59.8%
- viability, T/C [11]: 35.5%
- viability, T/C [12]: 18.9%
- viability, T/C [13]: 105%
- viability, T/C [14]: 98.6%
- viability, T/C [15]: 68.5%
- viability, T/C [16]: 48.1%
- viability, T/C [17]: 23.1%
- viability, T/C [18]: 28.4%
- viability, T/C [19]: 84.4%
- viability, T/C [20]: 94%
- viability, T/C [21]: 86.8%
- viability, T/C [22]: 57.5%
- viability, T/C [23]: 36.7%
- viability, T/C [24]: 22.3%
- viability, T/C [25]: 104%
- viability, T/C [26]: 71.2%
- viability, T/C [27]: 88.2%
- viability, T/C [28]: 57.6%
- viability, T/C [29]: 38.3%
- viability, T/C [30]: 26.1%
